{"source": "patent US6759207B2", "about": "“Fluorogenic or fluorescent reporter molecules and their applications for whole-cell fluorescence screening assays for caspases and other enzymes and the use thereof” (Cytovia, Inc., priority 1997, dated 2004)", "key": {"[1]": {"tested_on": "HL-60 cells", "assay": "Staining of apoptotic HL-60 cells by caspase-3 substrate (whole-cell assay, microscopy)", "format": "cell-based", "procedure": "(§1) The ability of N-Ac-DEVD-N′-octyloxycarbonyl-R110 SEQ ID NO:5 to detect caspase activation in intact cells was tested using apoptotic HL-60 and Jurkat cells. These whole-cell assays were carried out in two stages: 1) induction of apoptosis; 2) incubation with the substrate. For HL-60 cells, apoptosis was induced by treatment with 10 μg/ml vinblastine for 4 hours. Control samples were treated with DMSO. For Jurkat cells, apoptosis was induced by treatment with 500 ng/ml agonistic antiFas antibody for 2 hours. Control samples were treated with PBS. Following apoptosis induction, the cells were incubated with 50 μM N-Ac-DEVD-N′-octyloxycarbonyl-R110 SEQ ID NO:5 in caspase assay buffer (40 mM PIPES, pH 7.4; 100 mM NaCl; 10% sucrose; 1 mM EDTA; 10 mM DTT). The cells were than transferred to a glass microslide and viewed by epifluorescent illumination on a Nikon inverted microscope."}, "[2]": {"tested_on": "Jurkat cells", "assay": "Staining of apoptotic Jurkat cells by caspase-3 substrate (whole-cell assay, microscopy)", "format": "cell-based", "details": "50 μM substrate", "procedure": "as §1"}, "[3]": {"tested_on": "apoptotic HL-60 cell lysates", "assay": "Cleavage of caspase-3 substrates by apoptotic HL-60 cell lysates", "format": "biochemical", "details": "10 μM or 50 μM substrate, 37° C., vinblastine treated HL-60 cell lysates", "procedure": "(§2) The caspase substrates were assayed by recombinant caspase-3 and by lysates prepared from apoptotic HL-60 cells. The assays were carried out at 37° C. in 96-well plates in a 100 μL incubation containing 30 μL of caspase-3 preparation or cell lysate, 10 μM or 50 μM of the substrate, and caspase assay buffer (40 mM 1,4-piperazinebis(ethansulfonic acid) (PIPES, Aldrich Chemical Company) pH 7.2; 100 mM NaCl; 10% sucrose; 0.1% CHAPS; 1 mM EDTA; 10 mM DTT). At the end of the incubation period, the fluorescence was measured on a Bio-Tek FL500 fluorescence microplate reader using excitation and emission wavelengths of 485 and 530 nm, respectively. Two different controls were run: 1) an enzyme blank consisting of samples containing substrate, but without enzyme or cell lysate; 2) an inhibitor control, consisting of samples which contained the caspase inhibitor, Ac-DEVD-CHO (f.c., 10 μM)."}, "[4]": {"target": "T1, recombinant human caspase-3 (Homo sapiens, UniProt P42574)", "T1 sequence (P42574 29-175 limits assumed)": "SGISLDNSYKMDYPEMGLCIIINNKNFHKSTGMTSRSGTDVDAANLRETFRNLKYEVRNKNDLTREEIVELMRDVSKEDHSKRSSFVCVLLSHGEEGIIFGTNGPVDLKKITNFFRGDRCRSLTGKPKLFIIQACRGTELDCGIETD", "T1 sequence (P42574 176-277 limits assumed)": "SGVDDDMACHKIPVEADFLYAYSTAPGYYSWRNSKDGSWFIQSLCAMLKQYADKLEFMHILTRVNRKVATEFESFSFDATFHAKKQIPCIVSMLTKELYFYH", "assay": "Cleavage of caspase-3 substrates by recombinant human caspase-3", "format": "biochemical", "details": "10 μM or 50 μM substrate, 37° C.", "procedure": "as §2"}, "[5]": {"tested_on": "Jurkat cells", "assay": "Cleavage of caspase-3 substrate by whole apoptotic Jurkat cells (plate reader)", "format": "cell-based", "procedure": "In order to quantitate the cleavage of N-Ac-[…]-N-octyloxycarbonyl-R110 SEQ ID NO:5 by whole cells, an assay was performed in which the fluorescent signal generated from this substrate by apoptotic Jurkat cells was measured in a spectrofluorometric plate reader. Jurkat cells were incubated for varying times in 96-well plates with 500 ng/ml antiFas antibody to induce apoptosis. Control cells were incubated with PBS. At the end of the treatment period, the cells were harvested, centrifuged in 1.5 ml tubes and resuspended in 25 μL of medium containing 1% FBS. 25 μL of caspase buffer containing 50 μM N-Ac-DEVD-N′-octyloxycarbonyl R110 SEQ ID NO:5 was added, and the cells were incubated for one hour. At the end of the incubation period, three 5 μL aliquots from each time point were placed in 96-well plates and the fluorescence was measured at excitation/emission wavelength of 485/530 nm. […] However, cells treated with antiFas gave a detectable fluorescent signal at about one hour after apoptosis induction, and the signal continued to increase up to the 2 hour timepoint, with a signal to background ratio of about 7."}, "[6]": {"target": "T2, recombinant human caspase-7 (Homo sapiens, UniProt P55210)", "T2 sequence (P55210 24-198 limits assumed)": "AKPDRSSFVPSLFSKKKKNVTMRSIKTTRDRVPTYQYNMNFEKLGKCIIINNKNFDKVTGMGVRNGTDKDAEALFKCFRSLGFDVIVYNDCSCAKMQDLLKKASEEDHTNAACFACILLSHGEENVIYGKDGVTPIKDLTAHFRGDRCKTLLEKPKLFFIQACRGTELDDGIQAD", "T2 sequence (P55210 207-303 limits assumed)": "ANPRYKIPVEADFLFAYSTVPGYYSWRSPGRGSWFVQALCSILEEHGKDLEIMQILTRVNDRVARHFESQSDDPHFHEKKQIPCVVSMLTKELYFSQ", "assay": "Cleavage of caspase-8 substrate by recombinant human caspase-7", "format": "biochemical", "details": "10 μM substrate, 37° C.", "procedure": "(§3) N-Ac-LEVD-N-ethoxycarbonyl R110 SEQ ID NO:9 was assayed by recombinant human caspase-3, 6, 7, and 8. The assays were carried out at 37° C. in 96-well plates in a 100 μL incubation containing recombinant human caspase, 10 μM of N-Ac-LEVD-N′-ethoxycarbonyl R110 SEQ ID NO:9, and caspase assay buffer (40 mM PIPES, pH 7.2; 100 mM NaCl; 10% sucrose; 0.1% CHAPS; 1 mM EDTA; 10 mM DTT). At the end of the incubation period, the fluorescence was determined on a Bio-Tek FL500 fluorescence microplate reader using excitation and emission wavelengths of 485 and 530 nm, respectively. In order to correct for the endogenous fluorescence of the uncleaved substrate, controls were run which consisted of samples containing 10 μM N-Ac-LEVD-N′-ethoxycarbonyl R110 SEQ ID NO:9 without enzyme (“enzyme blanks”). Additional controls included samples containing the caspase inhibitor Ac-DEVD-CHO SEQ ID NO:5. […] Caspase-3 cleaved N-Ac-LEVD-N′-ethoxycarbonyl R110 SEQ ID NO:9 less efficiently, yielding a signal that was about 5-fold above the enzyme blank value."}, "[7]": {"target": "recombinant human caspase-8 (Homo sapiens, UniProt Q14790)", "sequence (Q14790 217-374 limits assumed)": "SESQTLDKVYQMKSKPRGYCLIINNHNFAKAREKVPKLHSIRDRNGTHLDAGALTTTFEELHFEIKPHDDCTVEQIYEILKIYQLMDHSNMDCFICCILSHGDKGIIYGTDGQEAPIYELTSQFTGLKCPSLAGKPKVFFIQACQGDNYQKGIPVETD", "sequence (Q14790 385-479 limits assumed)": "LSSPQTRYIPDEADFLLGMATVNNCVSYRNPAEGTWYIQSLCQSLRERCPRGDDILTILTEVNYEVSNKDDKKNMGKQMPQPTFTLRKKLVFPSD", "assay": "Cleavage of caspase-8 substrate by recombinant human caspase-8", "format": "biochemical", "details": "10 μM substrate, 37° C.", "procedure": "as §3"}, "[8]": {"target": "T3, recombinant human caspase-6 (Homo sapiens, UniProt P55212)", "T3 sequence (P55212 24-179 limits assumed)": "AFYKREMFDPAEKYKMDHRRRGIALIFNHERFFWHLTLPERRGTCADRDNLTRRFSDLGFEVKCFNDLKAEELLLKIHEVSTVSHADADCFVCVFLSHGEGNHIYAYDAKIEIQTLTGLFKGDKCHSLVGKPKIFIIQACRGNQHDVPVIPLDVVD", "T3 sequence (P55212 194-293 limits assumed)": "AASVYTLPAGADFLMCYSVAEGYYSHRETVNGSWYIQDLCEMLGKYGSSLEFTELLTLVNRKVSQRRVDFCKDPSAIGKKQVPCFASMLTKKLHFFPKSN", "assay": "Cleavage of caspase-8 substrate by recombinant human caspase-6", "format": "biochemical", "details": "10 μM substrate, 37° C.", "procedure": "as §3"}, "[9]": {"target": "T1, recombinant human caspase-3", "assay": "Cleavage of caspase-8 substrate by recombinant human caspase-3", "format": "biochemical", "details": "10 μM substrate, 37° C.", "procedure": "as §3"}, "[10]": {"tested_on": "HL-60 cells", "assay": "Uptake and cleavage of aminopeptidase substrate by HL-60 cells", "format": "cell-based", "details": "10 μM substrate, 3 hours at 37° C.; for fluorescence of cells under microscope: FIGS. 7A-B; for Counts/μg protein: excitation 485 nm, emission 525 nm", "procedure": "HL-60 cells were placed in 5 ml of Iscove's medium (without serum or phenol-red) containing 10 μM N-G-N′-octyloxycarbonyl-R110 or 10 μM N-Z-G-N-octyloxycarbonyl-R110. Three million HL-60 cells were incubated for 3 hours at 37° C. in a CO2 incubator, recovered by centrifugation, and washed in 50 μL of ice-cold medium. The cells were re-centrifuged and the final pellet was resuspended in 50 μL of fresh medium. Aliquots of each cell suspension were placed in a microtiter 96-well plate and read on a Wallac 1420 microplate reader with excitation wavelength at 485 nm, emission wavelength at 525 nm. Aliquots of each cell suspension were also placed on microslides and viewed on a Nikon inverted microscope with epifluorescent illumination. […] There was no signal from the cells incubated with 10 μM N-Z-G-N′-octyloxycarbonyl-R110."}, "[11]": {"tested_on": "HL-60 cell lysates (aminopeptidases)", "assay": "Cleavage of aminopeptidase substrate by HL-60 cell lysates (microtiter plate assay)", "format": "biochemical", "details": "FIG. 6", "procedure": "Aminopeptidases are present in many cells and sequentially remove unblocked amino acid residues from peptides, starting from the N-terminus. Peptides with blocked amino termini are not cleaved. HL-60 lysates were prepared by homogenizing HL-60 cells in caspase buffer, and the ability of these lysates to cleave N-Z-G-N′-octyloxycarbonyl R110 and N-G-N′-octyloxycarbonyl-R110 was tested in a microtiter plate assay."}}, "note": "Peptide text beside a SMILES is read from it. * marks the point of attachment. NH(Rh110(N'-COOEt)) = CCOC(=O)Nc1ccc2c(c1)Oc1cc(N*)ccc1C21OC(=O)c2ccccc21", "data": [{"smiles": "CC(=O)N[C@@H](CC(=O)O)C(=O)N[C@@H](CCC(=O)O)C(=O)N[C@H](C(=O)N[C@H](C=O)CC(=O)O)C(C)C", "note": "[Ac-DEVD-CHO, reference compound]", "values": [{"measurement": "fluorescent signal of vinblastine-treated HL-60 cells with inhibitor added during the assay stage", "setting": "[1]; 50 μM Ac-DEVD-CHO, substrate 50 μM N-Ac-DEVD-N′-octyloxycarbonyl-R110", "value": "almost no fluorescent signal"}]}, {"smiles": "CCCCCCCCOC(=O)Nc1ccc2c(c1)Oc1cc(NC(=O)[C@H](CC(=O)O)NC(=O)[C@@H](NC(=O)[C@H](CCC(=O)O)NC(=O)[C@H](CC(=O)O)NC(C)=O)C(C)C)ccc1C21OC(=O)c2ccccc21", "note": "(stereo partly drawn) [N-Ac-DEVD-N′-octyloxycarbonyl-R110, N-(Ac-Asp-Glu-Val-Asp)-N′-octyloxycarbonyl-Rhodamine 110]", "values": [{"measurement": "staining of antiFas-treated Jurkat cells", "setting": "[2]; 500 ng/ml agonistic antiFas antibody for 2 hours", "value": "intense staining"}, {"measurement": "staining of control Jurkat cells", "setting": "[2]; PBS-treated", "value": "only light staining"}, {"measurement": "Cleavage by Apoptotic Lysates", "setting": "[3]", "value": "Good"}, {"measurement": "Cleavage by Caspase-3", "setting": "[4]", "value": "Good"}, {"measurement": "staining of vinblastine-treated HL-60 cells", "setting": "[1]; 50 μM substrate, apoptosis induced by 10 μg/ml vinblastine for 4 hours", "value": "intensely stained"}, {"measurement": "staining of DMSO-treated HL-60 cells", "setting": "[1]; 50 μM substrate, control cells", "value": "some staining"}, {"measurement": "signal to background ratio", "setting": "[5]; antiFas-treated Jurkat cells, 2 hour timepoint, 485/530 nm", "value": "about 7"}, {"measurement": "fluorescent signal of PBS-treated cells", "setting": "[5]; control Jurkat cells", "value": "small fluorescent signal which did not increase"}]}, {"smiles": "CCOC(=O)Nc1ccc2c(c1)Oc1cc(NC(=O)[C@H](CC(=O)O)NC(=O)[C@@H](NC(=O)[C@H](CCC(=O)O)NC(=O)[C@H](CC(C)C)NC(C)=O)C(C)C)ccc1C21OC(=O)c2ccccc21", "note": "(stereo partly drawn) [N-Ac-LEVD-N′-ethoxycarbonyl R110, N-(Ac-Leu-Glu-Val-Asp)-N′-ethoxycarbonyl-Rhodamine 110] (Ac-LEVD-{NH(Rh110(N'-COOEt))})", "values": [{"measurement": "fluorescent signal", "setting": "[6]", "value": "virtually no signal"}, {"measurement": "signal to background ratio", "setting": "[7]", "value": "about 26"}, {"measurement": "signal to background ratio", "setting": "[8]", "value": "about 13"}, {"measurement": "signal above the enzyme blank value", "setting": "[9]", "value": "about 5 fold"}]}, {"smiles": "Br.CCCCCCCCOC(=O)Nc1ccc2c(c1)Oc1cc(NC(=O)CN)ccc1C21OC(=O)c2ccccc21", "note": "(stereo not drawn) [N-G-N′-octyloxycarbonyl-R110, N-Gly-N′-octyloxycarbonyl-Rhodamine-110 HBr]", "values": [{"measurement": "signal from cells (microplate reader)", "setting": "[10]", "value": "showed signal"}, {"measurement": "fluorescence of cells under microscope", "setting": "[10]", "value": "showed fluorescence under microscope"}, {"measurement": "Counts/μg protein", "setting": "[10]", "value": 12.98, "unit": "Counts/μg protein"}, {"measurement": "cleavage by HL-60 cell lysates", "setting": "[11]", "value": "readily cleaved"}]}, {"smiles": "CCCCCCCCOC(=O)Nc1ccc2c(c1)Oc1cc(NC(=O)CNC(=O)OCc3ccccc3)ccc1C21OC(=O)c2ccccc21", "note": "(stereo not drawn) [N-Z-G-N′-octyloxycarbonyl-R110, N-[Z-Gly]-N′-octyloxycarbonyl-Rhodamine-110]", "values": [{"measurement": "signal from cells (microplate reader)", "setting": "[10]", "value": "no signal"}, {"measurement": "fluorescence of cells under microscope", "setting": "[10]", "value": "no fluorescence signal was observed"}, {"measurement": "Counts/μg protein", "setting": "[10]", "value": 0, "unit": "Counts/μg protein"}, {"measurement": "cleavage by HL-60 cell lysates", "setting": "[11]", "value": "no signal was generated"}]}]}
